The values below come from patent US20010036460A1, “Targeted death cancer cells” (priority 2000, published 2001).

Assay [1] has as its system LNCaP cells stably transfected with the plasmid p22EDT1. Description: Trypan blue exclusion cell viability assay after 48 hours culture with 4-OHT (FIG. 3). It is filed as cell-based, human. Particulars: 4-OHT of varying concentrations. The method, then:
FIG. 3. […] Parental LNCAP cells (blue) and LNCaP cells stably transfected with the plasmid p22EDT1 (red) were cultured in the presence of 4-OHT of varying concentrations for 48 hours after which the trypan blue exclusion assay was used to assess cell viability. p22EDT1 contains an SV40 promoter driving an FLP-ERt gene sequence and a CMV promoter driving a DT-A sequence disrupted by an FRT-puro/pA-FRT cassette.

The subject of assay [2] is PC-3 cells co-infected with the bcl2/FLP-ERt and RSV/FRT2puroDT-A containing adenoviruses. Description: In vitro test of gene therapy system: viable and clonogenic cell number after 4-OHT. The note with it: co-infected PC-3 cells, 4-OHT-treated versus non-treated cultures; 1, 2, 3 μM, 48 hours. The class given is cell-based, human. The method, then: PC-3 cells are co-infected with the bcl2/FLP-ERt and RSV/FRT2puroDT-A containing adenoviruses. Cell death resulting from administration of the synthetic ligand 4-hydroxytamoxifen (4-OHT) is tested in cultured cells. Adenoviral infection is carried out by the addition of viral solutions of varying ratios of the two viruses and at varying degrees of multiplicity of infection to cell monolayers. After three hours of exposure to virus, the medium is changed and cells are incubated in fresh medium containing 4-OHT. Three concentrations of 4-OHT are tested: 1, 2, and 3 μM. After 48 hours incubation with 4-OHT, the number of viable cells are determined using the Trypan blue exclusion assay and the MTT assay (8). Since DT-A kills irreversibly by both apoptosis, as well as nonapoptotic pathways (39), the number of apoptotic cells is also determined. In addition, the growth potential of cells following treatment with tamoxifen is determined using a clonogenic assay (8).
In infected cells, the binding of 4-OHT to the FLP-ERt fusion protein will activate FLP. This in turn will result in recombinational excision of the FRT-puropA-FRT sequence, expression of the DT-A subunit, and cell death. […] Control infections are done with the RSV/FRT2puroDT-A virus alone and with the RSV/puro virus. […]

In another assay the test system is PC-3 xenografts. Briefly: In vivo test of gene therapy system: PC-3 xenograft tumor volume after 4-OHT. Further details: species or system male BALB/c nu/nu athymic mice. The method, then: To further test the efficacy of the regulated recombination system for targeting DT-A to bcl-2 expressing cells, xenografts are generated in male BALB/c nu/nu athymic mice by the subcutaneous injection of PC-3 cells (38,40,42). To generate tumors, […] are mixed with Matrigel basement membrane matrix and injected subcutaneously into the flank of a mouse (38). When tumors reach a volume of about 50 mm^3, a mixture of bcl2/FLP-ERt and RSV/FRT2puroDT-A containing virus is injected directly into the tumor site. A 1:1 ratio of the two viruses is maintained, while the total number of plaque forming units varies (10^9, 5×10^9, and 10^10). Twenty-four hours after injection of the virus, 4-OHT is administered to the host mice either by a single injection directly into the tumor (100 μl of a 3 μM solution in PBS) or by intraperitoneal injection on five consecutive days (1 mg in 100 μl sunflower seed oil). At one, two, and three weeks following the administration of 4-OHT, mice are euthanized, tumors are excised, and their volume and wet weight determined. Tumor volume is calculated by multiplying caliper measurements of length, width, and depth and then multiplying by 0.5236 (23). […] Tumors are fixed and processed for histopathological examination. Other control groups in this study are xenografts infected only with the RSV/FRT2puroDT-A virus and xenografts injected only with PBS.

With 4-hydroxytamoxifen [4-OHT], in assay [1], the “cell viability (DTA expression and cell death)” value was “results in DTA expression and cell death”. In assay [2], the “number of viable and clonogenic cells” value was “significantly reduced”. For the same substance, the tumor size result with PC-3 xenografts (control xenografts infected only with the RSV/FRT2puroDT-A virus or injected only with PBS) is given as “no effect on tumor size”. Moreover, the tumor volume result in the assay with PC-3 xenografts (xenografts injected with 1:1 mixture of bcl2/FLP-ERt and RSV/FRT2puroDT-A virus, 4-OHT intratumoral or intraperitoneal, versus vehicle-treated control mice) was “significantly less”.
